Test results as given in paper PMC7328663, “Agonist-specific desensitization of PGE2-stimulated cAMP signaling due to upregulated phosphodiesterase expression in human lung fibroblasts” (Naunyn-Schmiedeberg's archives of pharmacology, 2019).
Values joined by “and” are separate entries in the source; they are usually repeats but may differ in a detail not shown here. Identical values can stand only once.

Experiments:
[1] = system: PDE; assay: PDE activity assays in HFL-1 cell lysates ([3H]cAMP hydrolysis); format: biochemical, human; settings: for PDE activity in lysates in presence of inhibitor: roflumilast 1 μM or IBMX 1 mM in the assay, vehicle-, PGE2- and isoproterenol-pretreated cells, Fig. 6d; for bulk PDE activity vs vehicle: cells treated 24 h with 30 μM forskolin, 100 nM PGE2 or 1 μM isoproterenol, Fig. 6c
[2] = system: HFL-1 cells; assay: cADDis assay for cAMP (fluorescent biosensor) in HFL-1 fibroblasts; format: cell-based, human; settings: for leftward shift of PGE2 concentration-response curve (reversal of desensitization) by PDE inhibitor: 10 μM inhibitor, 10 min, Fig. 7a–c; for desensitization of β-AR (isoproterenol) cAMP responses by pretreatment: 24 h pretreatment with 100 nM PGE2 or 100 nM isoproterenol, Fig. 1d; for rightward shift of PGE2 responses induced by pretreatment: 24 h pretreatment with 100 nM of the agonist vs vehicle, Fig. 5b, n = 4; for EC50: Homo sapiens, HFL1; for PGE2 maximal response: normalized to 1 μM forskolin plus 200 μM IBMX, Fig. 4 experiments; for desensitization of PGE2 cAMP responses by pretreatment: 24 h pretreatment with 100 nM isoproterenol or 1 μM forskolin, Fig. 2a, Fig. 3
Description: HFL-1 fibroblasts (ATCC, Manassas, VA, USA) were grown in Ham’s F12K medium (Thermo Fisher Scientific, Waltham, MA, USA) with 10% fetal bovine serum (Atlanta Biologicals, Flowery Branch, GA, USA) and 1% antibiotic-antimycotic solution. Cells with a passage number of 13 to 25 were used and were grown to 70–90% confluency for all studies. Cells were grown in an incubator at 37 °C and 5% CO2 levels. Medium was aspirated and cells were washed once with PBS. After aspiration of PBS, 5 mL of 0.25% trypsin-EDTA (Thermo Fisher Scientific, Waltham, MA, USA) was added for 5 min to induce cell detachment. Media was added to the flask and gently mixed to suspend detached cells, transferred to tubes, centrifuged at 500g for 5 min, then washed to remove trypsin. The cell pellet was resuspended in growth medium, and approximately 9000 sells were plated per well on 96-well plates. Cells were pretreated with PGE2, other drugs, or vehicle prior to experiments by adding 10× concentration of drug to growth media. Medium was aspirated after 24 h, and each well was washed once with warm Dulbecco’s phosphate-buffered saline before performing cADDis assay for cAMP.
The cADDis assay was purchased from Montana Molecular (Bozeman, MT, USA). HFL-1 cells were incubated with a recombinant mammalianized baculovirus (BacMam) engineered to express a genetically modified protein that is a fusion of EPAC, a cAMP effector, with the green fluorescent protein (GFP). This protein serves as a convenient and quantitative cAMP sensor. In its unbound form, the protein fluoresces, but its fluorescence is quenched upon binding of cAMP. When seeding the cells in a 96-well plate, the following components were added: […] of cells plus media, 40 μL BacMam solution, and 2 μL of trichostatin A (an inhibitor of histone deacetylase) (Sigma®, St. Louis, MO, USA). In the 96-well plate format, approximately 8900 cells were seeded per well and 2.95 × 10^8 viral particles per well were added. Trichostatin A stock concentration was 100 μM, giving a final concentration of 1 μM in the final volume of 200 μL per well. Transduced HFL-1 cells were incubated for 24 h at 37 °C and 5% CO2 levels. After incubation, medium was aspirated and replaced with 180 μL per well of 1× Dulbecco’s phosphate-buffered saline without calcium and magnesium (Thermo Fisher Scientific, Waltham, MA, USA). The 96-well plate was then covered with aluminum foil and incubated at 37 °C for 30 min. The plate was placed in a SpectraMax M5 plate reader (Molecular Devices, San Jose, CA, USA), and fluorescence was read from the bottom of the plate with an excitation wavelength of 494 nm and an emission wavelength of 522 nm for 5 min. Once variability of fluorescence was ≤ 5% in all wells, different concentrations ofPGE2 or other agents were added with a multi-pipette and the changes in fluorescence were measured every 30 s for 30 min.
Data from kinetic studies of fluorescence were normalized to the original level of fluorescence (ΔF/F0) and then fit to a single-site decay model using GraphPad Prism 7.0 (GraphPad Software Inc., San Diego, CA, USA). The plateau of each decay curve was then used as the maximal response to that given concentration of drug (Emax), and concentration-response curves were generated using nonlinear regression analysis (log [agonist] vs. response, variable slope, four parameters) using GraphPad Prism 7.0. Concentration-response curves in multiple conditions were compared using two-way analysis of variance (2-way ANOVA) with Tukey’s multiple comparison test, and significance (p value) is reported for the effect of different conditions. Statistical comparison tests (t tests, 1-way and 2-way ANOVA) were performed using GraphPad Prism.

[3] = system: PDE4D; assay: qRT-PCR of PDE4D mRNA after 24 h pretreatment; format: cell-based, human; settings: 24 h pretreatment: 1 μM forskolin, 100 nM isoproterenol or 100 nM PGE2; Fig. 6a
Description: (§1) After 48-h incubation with the lentivirus, medium was aspirated, cells were washed once in 1× PBS, and buffer RLT was added to disrupt cell membranes. Cells were collected and RNA was isolated using RNeasy columns with a QIAcube robot (Qiagen). RNA was quantified using the NanoDrop 2000/2000c (Thermo Fisher). Reverse transcription was performed on 400 ng of RNA samples. All steps followed the SuperScript® III First-Strand Synthesis System for RT-PCR protocol (Thermo Fisher). The steps included a denaturation step at 65 °C for 5 min in the RNA/primer mixture, containing 50 ng/μL of random hexamers. Complementary DNA (cDNA) synthesis mixture was added to the RNA/primer mixture and incubated for 10 min at 25 °C, followed by 50 min at 50 °C. The reaction was terminated at 85 °C for 5 min, then chilled on ice. Finally, 1 μL of RNase H was added to each tube followed by incubation for 20 min at 37 °C. cDNA samples were either used immediately for quantitative reverse transcription polymerase chain reaction (qRT-PCR) experiments or stored at − 20 °C.
(§2) TaqMan® Gene Expression Assays (Thermo Fisher) were used for qRT-PCR reactions. The ratio of components for each reaction was as follows: 1 μL 20× TaqMan® Gene Expression Assay, 10 μL 2× TaqMan® Gene Expression Mater Mix, 4 μL cDNA (1 ng to 100 ng), and 5 μL of RNase-free water. The thermal cycler settings were as follows: step 1, 50 °C for 2 min; step 2, 95 °C for 10 min; step 3, 95 °C for 15 s; and step 4, 60 °C for 1 min. Steps 3 and 4 were repeated for a total of 40 cycles. The housekeeping genes GAPDH, β-actin, and CDKN1A were used to normalize for differences in RNA samples. PCR data were analyzed using the 2^[−ΔΔCt] method, where Ct is the cycle threshold.

[4] = system: PDE3B; assay: qRT-PCR of PDE3B mRNA after 24 h pretreatment; format: cell-based, human; settings: 24 h pretreatment: 1 μM forskolin, 100 nM isoproterenol or 100 nM PGE2; Fig. 6a
Description: as §1, §2

[5] = system: HFL-1 cells; assay: Assay of basal cAMP (EIA of TCA extracts); format: cell-based, human; settings: cells pretreated with 100 nM PGE2 for 24 h; not significant vs vehicle (p = 0.815)
Description: HFL-1 cells were washed three times with serum- and NaHCO3-free DMEM supplemented with 20 mM HEPES, pH 7.4 (DMEH), then incubated for 30 min at 37 °C. Medium was aspirated, and 250 μL of trichloroacetic acid (TCA, 7.5% w/v) was added to each well. cAMP content in TCA extracts was determined by EIA (Cayman Chemical) following the manufacturer’s instructions. The amount of cAMP was normalized to the amount of protein per sample as determined using a dye-binding protein assay (Bio-Rad).

[6] = system: PDE3A; assay: qRT-PCR of PDE3A mRNA after 24 h pretreatment; format: cell-based, human; settings: 24 h pretreatment: 1 μM forskolin, 100 nM isoproterenol or 100 nM PGE2; Fig. 6a
Description: as §1, §2

[7] = system: EP2R; assay: qRT-PCR of EP2R mRNA after 24 h pretreatment; format: cell-based, human; settings: 24-h pretreatment with 100 nM PGE2; Fig. 6a
Description: TaqMan® Gene Expression Assays (Thermo Fisher) were used for qRT-PCR reactions. […] PCR data were analyzed using the 2^[−ΔΔCt] method, where Ct is the cycle threshold.

[8] = system: PDE4B; assay: qRT-PCR of PDE4B mRNA after 24 h pretreatment; format: cell-based, human; settings: 24 h pretreatment: 1 μM forskolin, 100 nM isoproterenol or 100 nM PGE2; Fig. 6a
Description: as §1, §2

[9] = cells pretreated with 100 nM PGE2 for 24 h
[10] = acute cAMP increase, no pretreatment, Fig. 5a

O=C(Nc1c(Cl)cncc1Cl)c1ccc(OC(F)F)c(OCC2CC2)c1 [roflumilast]
PDE activity in lysates in presence of inhibitor [1]: significantly reduced PDE activity

CC(C)Cn1c(=O)n(C)c(=O)c2[nH]cnc21 [IBMX, 3-isobutyl-1-methylxanthine]
PDE activity in lysates in presence of inhibitor [1]: significantly reduced PDE activity
leftward shift of PGE2 concentration-response curve (reversal of desensitization) by PDE inhibitor [2, 9]: small leftward shift that was not statistically significant

CCCCC[C@H](O)/C=C/[C@H]1[C@H](O)CC(=O)[C@@H]1C/C=C\CCCC(=O)O [PGE2, prostaglandin E2]
bulk PDE activity vs vehicle [1]: significantly increased PDE activity
bulk PDE activity vs vehicle, time course ([1]; cells treated with 100 nM PGE2 from 5 min to 24 h, after 6 h or more): significant increases
PDE4D mRNA expression, fold change over vehicle [3]: 22.3 fold
PDE3B mRNA expression [4]: Significant upregulation
basal cAMP level [5]: 57.9 ± 13.8 fmol/mg protein
desensitization of β-AR (isoproterenol) cAMP responses by pretreatment ([2]; Fig. 2b): does not cause desensitization
rightward shift of PGE2 responses induced by pretreatment [2]: 8.0 ± 2.2 fold
EC50 ([2]; acute PGE2 cAMP response, 24 h vehicle pretreatment, Table 1/Fig. 1c, mean ± SEM n = 3–10): 39.8 nM
EC50 [2, 10]: 3.31 nM
PGE2 maximal response ([2]; PGE2-pretreated cells (100 nM, 24 h)): 0.60 ± 0.09
Emax ([2]; PGE2 response after 24 h pretreatment with 1, 10 or 100 nM PGE2 vs vehicle): None of the pretreatment conditions produced a significant reduction
PGE2 maximal response ([2]; vehicle-pretreated cells): 1.06 ± 0.10
PDE3A mRNA expression, fold change over vehicle [6]: 7.3 fold
EP2R mRNA levels [7]: did not observe any change
PDE4B mRNA expression, fold change over vehicle [8]: 2.6 fold

O=C1CCc2cc(OCCCCc3nnnn3C3CCCCC3)ccc2N1 [cilostazol]
leftward shift of PGE2 concentration-response curve (reversal of desensitization) by PDE inhibitor [2, 9]: had no effect

CCOc1c2c(c(OCC)c3ccccc13)C(=O)N(c1ccc(CC(=O)NS(=O)(=O)c3ccccc3)cc1)C2 [GW-627368X]
shift of PGE2 concentration-response curve by antagonist ([2]; antagonist 100 nM, cells pretreated with 100 nM PGE2 for 24 h, Fig. 4): did not
rightward shift of PGE2 concentration-response curve by antagonist ([2]; antagonist 100 nM, vehicle-pretreated cells): did not cause a rightward shift

COc1ccc(C2CNC(=O)C2)cc1OC1CCCC1 (stereo not drawn) [rolipram]
leftward shift of PGE2 concentration-response curve (reversal of desensitization) by PDE inhibitor [2, 9]: 2.8 fold
effect on isoproterenol cAMP responses ([2]; 10 μM rolipram, cells pretreated with 100 nM PGE2 for 24 h, Fig. 7d): had no effect

C=CCC1([C@@H](O)C/C=C/[C@@H]2[C@@H](C/C=C\CCCC(=O)O)[C@H](Cl)C[C@H]2O)CCC1 [ONO-AE1–259]
rightward shift of PGE2 responses induced by pretreatment [2]: 4.0 ± 1.2 fold and 4 fold
log EC50 [2, 10]: −8.29

CC(C)NCC(O)c1ccc(O)c(O)c1 (stereo not drawn) [isoproterenol]
bulk PDE activity vs vehicle [1]: does not
PDE4D mRNA expression, fold change over vehicle [3]: 5.0 fold
PDE3B mRNA expression [4]: Significant upregulation
desensitization of β-AR (isoproterenol) cAMP responses by pretreatment ([2]; Fig. 2b): induces desensitization of β-AR responses
desensitization of PGE2 cAMP responses by pretreatment [2]: does not decrease responses to PGE2
EC50 ([2]; acute isoproterenol cAMP response, 24 h pretreatment with 100 nM isoproterenol, Fig. 2b): 2.24 nM
PDE3A mRNA expression, fold change over vehicle [6]: no effect
PDE4B mRNA expression, fold change over vehicle [8]: 1.3 fold

C=C[C@@]1(C)CC(=O)[C@]2(O)[C@@]3(C)[C@@H](O)CCC(C)(C)[C@@H]3[C@H](O)[C@H](OC(C)=O)[C@@]2(C)O1 [forskolin]
bulk PDE activity vs vehicle [1]: significantly increased PDE activity
PDE4D mRNA expression, fold change over vehicle [3]: 7.9 fold
PDE3B mRNA expression [4]: Significant upregulation
desensitization of PGE2 cAMP responses by pretreatment [2]: did not cause desensitization of PGE2 responses
PDE3A mRNA expression, fold change over vehicle [6]: no effect
PDE4B mRNA expression, fold change over vehicle [8]: 3.9 fold
